Several values for one entry are separate records, joined by “and”; a condition that tells them apart may be missing. Equal values may be shown once. Toxic doses and inconclusive results are not listed. Cut-off read from the data, not from the text of the source: active = T/C of 150% or more; inactive = T/C below 125%.
Test system: L1210 leukemia ip in BDF1 mice, survival T/C
Experiment: NCI In Vivo Anticancer Drug Screen. Data for tumor model L1210 Leukemia (intraperitoneal) in B6D2F1 (BDF1) mice
Conditions: endpoint: mean survival time, higher = longer survival
Procedure, shortened: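 Survival endpoint. Drug-treated group vs vehicle group, expressed as T divided by C. Tumor passaged by transplantation.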

[1] = dose: 100.0 mg/kg/injection, schedule: Q01DX009 (ip), vehicle: Klucel (hydroxypropylcellulose) (HPC)
[2] = dose: 100.0 mg/kg/injection, schedule: Q04DX002 (ip), vehicle: Klucel (hydroxypropylcellulose) (HPC)
[3] = dose: 200.0 mg/kg/injection, schedule: Q01DX009 (ip), vehicle: Klucel (hydroxypropylcellulose) (HPC)
[4] = dose: 200.0 mg/kg/injection, schedule: Q04DX002 (ip), vehicle: Klucel (hydroxypropylcellulose) (HPC)
[5] = dose: 400.0 mg/kg/injection, schedule: Q01DX009 (ip), vehicle: Klucel (hydroxypropylcellulose) (HPC)
[6] = dose: 400.0 mg/kg/injection, schedule: Q04DX002 (ip), vehicle: Klucel (hydroxypropylcellulose) (HPC)
[7] = dose: 100.0 mg/kg/injection, schedule: Q01DX009 (ip), vehicle: saline
[8] = dose: 200.0 mg/kg/injection, schedule: Q01DX009 (ip), vehicle: saline
[9] = dose: 400.0 mg/kg/injection, schedule: Q01DX009 (ip), vehicle: saline
[10] = dose: 200.0 mg/kg/injection, schedule: Q04DX003 (ip), vehicle: saline with Tween-80
[11] = dose: 400.0 mg/kg/injection, schedule: Q04DX003 (ip), vehicle: saline with Tween-80
[12] = dose: 100.0 mg/kg/injection, schedule: Q01DX001 (ip), vehicle: saline
[13] = dose: 200.0 mg/kg/injection, schedule: Q01DX001 (ip), vehicle: saline
[14] = dose: 50.0 mg/kg/injection, schedule: Q01DX009 (ip), vehicle: Klucel (hydroxypropylcellulose) (HPC)
[15] = dose: 50.0 mg/kg/injection, schedule: Q01DX009 (ip), vehicle: saline with Tween-80
[16] = dose: 100.0 mg/kg/injection, schedule: Q01DX009 (ip), vehicle: saline with Tween-80
[17] = dose: 200.0 mg/kg/injection, schedule: Q01DX009 (ip), vehicle: saline with Tween-80
[18] = dose: 5.0 mg/kg/injection, schedule: Q01DX001 (ip), vehicle: saline
[19] = dose: 10.0 mg/kg/injection, schedule: Q01DX001 (ip), vehicle: saline
[20] = dose: 20.0 mg/kg/injection, schedule: Q01DX001 (ip), vehicle: saline
[21] = dose: 100.0 mg/kg/injection, schedule: Q04DX003 (ip), vehicle: saline with Tween-80
[22] = dose: 25.0 mg/kg/injection, schedule: Q01DX001 (ip), vehicle: saline
[23] = dose: 50.0 mg/kg/injection, schedule: Q01DX001 (ip), vehicle: saline
[24] = dose: 400.0 mg/kg/injection, schedule: Q01DX001 (ip), vehicle: saline

Measured: T/C

Cc1nn(C)c(Cl)c1[N+](=O)[O-]
inactive: [1] 102 % of control | [2] 102 % of control | [3] 97 % of control | [4] 91 % of control | [5] 100 % of control | [6] 94 % of control

CCOc1ccc(=O)[nH]n1
inactive: [7] 93 % of control | dose: 100.0 mg/kg/injection, schedule: Q04DX003 (ip), vehicle: saline 105 % of control | [8] 93 % of control | dose: 200.0 mg/kg/injection, schedule: Q04DX003 (ip), vehicle: saline 101 % of control | [9] 95 % of control | dose: 400.0 mg/kg/injection, schedule: Q04DX003 (ip), vehicle: saline 115 % of control

O=C(NC1CCCCC1)c1ccc2ccccc2c1O
inactive: [10] 98 % of control | [11] 95 % of control

CC1(C)Cc2ccccc2C1=O
inactive: dose: 100.0 mg/kg/injection, schedule: Q04DX002 (ip), vehicle: saline with Tween-80 97 % of control | dose: 200.0 mg/kg/injection, schedule: Q04DX002 (ip), vehicle: saline with Tween-80 91 % of control | dose: 400.0 mg/kg/injection, schedule: Q04DX002 (ip), vehicle: saline with Tween-80 94 % of control

CCCCn1cc(COCC)c(=O)[nH]c1=O
inactive: dose: 50.0 mg/kg/injection, schedule: Q04DX002 (ip), vehicle: Klucel (hydroxypropylcellulose) (HPC) 98 % of control | [2] 102 % of control | [4] 98 % of control

OCCNc1ccccc1
inactive: [12] 93 % of control | [13] 101 % of control

O=C(Nc1ccc(Br)cc1)Oc1ccc(-c2ccccc2)cc1
inactive: [14] 95 % of control | [1] 95 % of control and 91 % of control | [3] 90 % of control | [5] 86 % of control and 87 % of control

COC(=O)/C=C/C(=O)O
inactive: dose: 75.0 mg/kg/injection, schedule: Q01DX001 (ip), vehicle: carboxymethylcellulose (CMC) 86 % of control

CCC/C=C/CCCCCC
inactive: [15] 93 % of control | [16] 93 % of control | [17] 104 % of control

NC(CSC(c1ccccc1)(c1ccccc1)c1ccc(CBr)cc1)C(=O)O (centres undefined)
inactive: dose: 50.0 mg/kg/injection, schedule: Q01DX009 (ip), vehicle: other 105 % of control | dose: 100.0 mg/kg/injection, schedule: Q01DX009 (ip), vehicle: other 115 % of control | dose: 200.0 mg/kg/injection, schedule: Q01DX009 (ip), vehicle: other 121 % of control

COc1cc(/C=C2/CCCCC2=O)ccc1O
inactive: dose: 100.0 mg/kg/injection, schedule: Q04DX003 (ip), vehicle: other 93 % of control | dose: 200.0 mg/kg/injection, schedule: Q04DX003 (ip), vehicle: other 100 % of control | dose: 400.0 mg/kg/injection, schedule: Q04DX003 (ip), vehicle: other 94 % of control

CCCCCCCC(=O)[O][Pb]([CH2]C)([CH2]C)[CH2]C
inactive: dose: 12.5 mg/kg/injection, schedule: Q04DX002 (ip), vehicle: DMSO 114 % of control

CCOC(=O)c1ccc(NCCCc2c(C)nc(N)[nH]c2=O)cc1
inactive: dose: 75.0 mg/kg/injection, schedule: Q01DX001 (ip), vehicle: saline with Tween-80 92 % of control | dose: 150.0 mg/kg/injection, schedule: Q01DX001 (ip), vehicle: saline with Tween-80 87 % of control | dose: 300.0 mg/kg/injection, schedule: Q01DX001 (ip), vehicle: saline with Tween-80 90 % of control

C=C(C(=O)c1ccccc1)C(NC(C)(C)C)c1ccccc1 (centres undefined)
inactive: [18] 95 % of control | [19] 98 % of control | [20] 95 % of control

COc1ccc(-c2ccc(OC)c(OC)c2OC)c(N)c1
inactive: dose: 65.0 mg/kg/injection, schedule: Q01DX Z (ip), vehicle: carboxymethylcellulose (CMC) 93 % of control and 121 % of control | dose: 125.0 mg/kg/injection, schedule: Q01DX Z (ip), vehicle: carboxymethylcellulose (CMC) 94 % of control and 100 % of control | dose: 250.0 mg/kg/injection, schedule: Q01DX Z (ip), vehicle: carboxymethylcellulose (CMC) 93 % of control and 86 % of control | dose: 500.0 mg/kg/injection, schedule: Q01DX Z (ip), vehicle: carboxymethylcellulose (CMC) 112 % of control

CC(=O)Nc1ccc2c(c1)C(NC(=O)/C=C\C(=O)O)c1ccccc1-2 (centres undefined)
inactive: [21] 111 % of control | [10] 98 % of control | [11] 107 % of control

CCCCS(=O)(=O)OCCCCOS(=O)(=O)CCCC
inactive: dose: 240.0 mg/kg/injection, schedule: Q01DX Z (ip), vehicle: saline 100 % of control | dose: 360.0 mg/kg/injection, schedule: Q01DX Z (ip), vehicle: saline 115 % of control | dose: 810.0 mg/kg/injection, schedule: Q01DX Z (ip), vehicle: saline 90 % of control

CCc1cc(C)cc(OC(=O)Nc2ccc(Cl)c(Cl)c2)c1
inactive: [16] 97 % of control | dose: 100.0 mg/kg/injection, schedule: Q04DX003 (ip), vehicle: Klucel (hydroxypropylcellulose) (HPC) 91 % of control | [17] 92 % of control | dose: 200.0 mg/kg/injection, schedule: Q04DX003 (ip), vehicle: Klucel (hydroxypropylcellulose) (HPC) 90 % of control | dose: 400.0 mg/kg/injection, schedule: Q01DX009 (ip), vehicle: saline with Tween-80 94 % of control | dose: 400.0 mg/kg/injection, schedule: Q04DX003 (ip), vehicle: Klucel (hydroxypropylcellulose) (HPC) 91 % of control

CCC(CO)NC(=O)/C=C/c1ccccc1Cl (centres undefined)
inactive: dose: 100.0 mg/kg/injection, schedule: Q01DX001 (ip), vehicle: saline with Tween-80 95 % of control | dose: 200.0 mg/kg/injection, schedule: Q01DX001 (ip), vehicle: saline with Tween-80 100 % of control | dose: 400.0 mg/kg/injection, schedule: Q01DX001 (ip), vehicle: saline with Tween-80 92 % of control

O=C(/C=N/O)Nc1cc(Cl)c(Cl)cc1Cl
inactive: [15] 97 % of control | [16] 94 % of control | [21] 98 % of control | [17] 94 % of control | [10] 103 % of control

C#CCCCOC(=O)Nc1ccccc1
inactive: [14] 97 % of control | [1] 103 % of control | [3] 89 % of control

CN/C([S-])=N/N=C/C(=N/N=C(\[S-])NC)c1ccc(-c2ccccc2)cc1.[Cu+2]
inactive: [2] 106 % of control | [4] 95 % of control | [6] 100 % of control

O=C(NNC(=O)OCC(Cl)(Cl)Cl)OCC(Cl)(Cl)Cl
inactive: dose: 25.0 mg/kg/injection, schedule: Q04DX002 (ip), vehicle: saline with Tween-80 90 % of control | dose: 50.0 mg/kg/injection, schedule: Q04DX002 (ip), vehicle: saline with Tween-80 87 % of control

CC(C)NC(=O)/C=C/C(=O)O
inactive: [7] 92 % of control | [8] 95 % of control | [9] 92 % of control

COc1ncnc2c1ccn2C1OC(CO)C(O)C1O (centres undefined)
inactive: [22] 86 % of control | [23] 101 % of control | [12] 101 % of control

O=C(O)C(Oc1ccc(Cl)cc1Cl)C(=O)O
inactive: dose: 100.0 mg/kg/injection, schedule: Q04DX002 (ip), vehicle: other 93 % of control | dose: 200.0 mg/kg/injection, schedule: Q04DX002 (ip), vehicle: other 97 % of control | dose: 400.0 mg/kg/injection, schedule: Q04DX002 (ip), vehicle: other 95 % of control

CCC1(O)C(=O)OCc2c1ccn(Cc1ccc3ccccc3c1)c2=O (centres undefined)
inactive: [22] 92 % of control | [23] 97 % of control | [12] 96 % of control | [13] 94 % of control

Nc1ncc2c(n1)SCC2
inactive: [18] 104 % of control | [19] 104 % of control | [20] 102 % of control | dose: 40.0 mg/kg/injection, schedule: Q01DX001 (ip), vehicle: saline 102 % of control | dose: 80.0 mg/kg/injection, schedule: Q01DX001 (ip), vehicle: saline 116 % of control

O=P(c1ccccc1)(c1ccccc1)C1(O)CCCCC1Cl (centres undefined)
inactive: [12] 105 % of control | [13] 96 % of control | [24] 100 % of control

O=C1NC(c2ccccc2)C(c2ccccc2)N1 (centres undefined)
inactive: [12] 97 % of control | [13] 100 % of control | [24] 97 % of control
